# Results reported in patent US8067460B2 (The Regents of the University of Califonia, priority 2004, dated 2011).
# Where two headings read alike, the source gives them in different places. No end group written: not given here.
# Columns and labels:
# [1] = biological target: Kv1.3 (Mus musculus, UniProt P16390); assay: Inhibitory effect on K+ channels (Appendix A): Kv1.3; format: cell-based; settings: for nH (Kv1.3): Hill coefficient printed beside the Kv1.3 EC50; for selectivity for Kv1.3 channels over Kv1.5 channels: Kv1.3 versus Kv1.5, from Appendix A
# [2] = biological target: Kv1.5 (Homo sapiens, UniProt P22460); assay: Inhibitory effect on K+ channels (Appendix A): Kv1.5; format: cell-based; settings: for nH (Kv1.5): Hill coefficient printed beside the Kv1.5 EC50
# [3] = system: class-switched (IgD−CD27+) memory B cells; settings: cited from earlier work
# [4] = biological target: Kv1.4 (Homo sapiens, UniProt P22459); assay: Inhibitory effect on K+ channels (Appendix A): Kv1.4; format: cell-based
# [5] = biological target: Kv1.1 (Homo sapiens, UniProt Q09470); assay: Inhibitory effect on K+ channels (Appendix A): Kv1.1; format: cell-based
# [6] = system: delayed-type hypersensitivity (DTH) response; settings: mini-pigs, cited from earlier work
# [7] = biological target: BK (Homo sapiens, UniProt Q12791); assay: Inhibitory effect on K+ channels (Appendix A): BK; format: cell-based
# [8] = biological target: IKCa1 (Homo sapiens, UniProt O15554); assay: Inhibitory effect on K+ channels (Appendix A): IKCa1; format: cell-based
# [9] = biological target: Kv1.7 (Homo sapiens, UniProt Q96RP8); assay: Inhibitory effect on K+ channels (Appendix A): Kv1.7; format: cell-based
# Kv1.7, sequence (Q96RP8 whole entry): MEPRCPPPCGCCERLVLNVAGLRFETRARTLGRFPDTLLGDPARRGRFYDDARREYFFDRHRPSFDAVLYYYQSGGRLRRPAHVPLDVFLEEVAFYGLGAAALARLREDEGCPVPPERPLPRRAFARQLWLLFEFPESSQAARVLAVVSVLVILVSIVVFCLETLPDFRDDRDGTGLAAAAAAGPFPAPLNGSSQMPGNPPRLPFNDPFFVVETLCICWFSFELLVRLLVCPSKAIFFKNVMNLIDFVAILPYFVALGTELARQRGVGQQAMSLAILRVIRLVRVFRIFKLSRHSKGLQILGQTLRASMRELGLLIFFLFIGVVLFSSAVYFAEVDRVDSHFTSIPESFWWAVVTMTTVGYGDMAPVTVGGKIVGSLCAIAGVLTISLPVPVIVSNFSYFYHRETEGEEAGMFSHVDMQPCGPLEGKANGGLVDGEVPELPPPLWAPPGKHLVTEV
# Kv1.3, sequence (P16390 whole entry): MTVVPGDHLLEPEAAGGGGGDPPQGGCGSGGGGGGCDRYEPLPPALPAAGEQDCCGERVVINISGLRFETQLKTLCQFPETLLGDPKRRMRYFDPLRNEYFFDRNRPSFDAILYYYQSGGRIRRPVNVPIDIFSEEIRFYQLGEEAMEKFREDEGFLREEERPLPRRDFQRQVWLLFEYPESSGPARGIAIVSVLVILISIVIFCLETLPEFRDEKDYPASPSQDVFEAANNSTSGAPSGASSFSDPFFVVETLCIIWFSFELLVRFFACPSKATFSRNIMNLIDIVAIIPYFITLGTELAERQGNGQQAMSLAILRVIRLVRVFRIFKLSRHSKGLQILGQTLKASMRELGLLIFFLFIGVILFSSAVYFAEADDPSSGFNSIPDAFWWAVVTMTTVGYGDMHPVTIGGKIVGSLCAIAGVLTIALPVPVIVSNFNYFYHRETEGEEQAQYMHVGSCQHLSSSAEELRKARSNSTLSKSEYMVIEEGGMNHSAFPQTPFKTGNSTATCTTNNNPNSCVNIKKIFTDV
# Kv1.5, sequence (P22460 whole entry): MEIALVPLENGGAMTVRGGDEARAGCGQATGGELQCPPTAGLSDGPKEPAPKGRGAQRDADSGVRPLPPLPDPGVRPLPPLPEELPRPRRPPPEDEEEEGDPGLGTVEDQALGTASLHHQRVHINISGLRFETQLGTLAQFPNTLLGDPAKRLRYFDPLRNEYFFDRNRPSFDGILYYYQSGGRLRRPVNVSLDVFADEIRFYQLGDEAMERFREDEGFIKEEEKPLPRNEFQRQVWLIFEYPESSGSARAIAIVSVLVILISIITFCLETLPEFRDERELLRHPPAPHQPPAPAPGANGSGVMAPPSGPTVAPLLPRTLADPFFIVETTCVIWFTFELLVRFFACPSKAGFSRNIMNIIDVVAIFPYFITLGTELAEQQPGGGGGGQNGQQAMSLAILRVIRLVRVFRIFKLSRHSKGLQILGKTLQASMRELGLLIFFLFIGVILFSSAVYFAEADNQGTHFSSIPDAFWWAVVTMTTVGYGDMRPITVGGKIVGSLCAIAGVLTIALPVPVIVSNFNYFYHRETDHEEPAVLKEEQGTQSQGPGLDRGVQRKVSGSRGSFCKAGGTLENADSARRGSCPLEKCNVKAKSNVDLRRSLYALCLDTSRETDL
# Kv1.1, sequence (Q09470 whole entry): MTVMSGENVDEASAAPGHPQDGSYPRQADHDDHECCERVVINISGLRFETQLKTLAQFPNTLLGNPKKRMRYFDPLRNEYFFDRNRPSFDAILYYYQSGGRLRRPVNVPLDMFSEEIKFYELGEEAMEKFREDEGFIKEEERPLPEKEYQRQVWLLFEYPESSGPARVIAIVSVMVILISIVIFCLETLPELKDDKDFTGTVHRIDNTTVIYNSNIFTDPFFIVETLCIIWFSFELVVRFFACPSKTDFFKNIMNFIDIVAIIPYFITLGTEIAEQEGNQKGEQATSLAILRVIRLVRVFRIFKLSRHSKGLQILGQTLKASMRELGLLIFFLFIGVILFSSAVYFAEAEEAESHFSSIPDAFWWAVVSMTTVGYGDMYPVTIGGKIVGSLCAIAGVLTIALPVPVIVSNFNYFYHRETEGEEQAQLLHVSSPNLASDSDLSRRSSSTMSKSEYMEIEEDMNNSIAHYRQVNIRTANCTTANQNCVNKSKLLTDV
# Kv1.4, sequence (P22459 whole entry): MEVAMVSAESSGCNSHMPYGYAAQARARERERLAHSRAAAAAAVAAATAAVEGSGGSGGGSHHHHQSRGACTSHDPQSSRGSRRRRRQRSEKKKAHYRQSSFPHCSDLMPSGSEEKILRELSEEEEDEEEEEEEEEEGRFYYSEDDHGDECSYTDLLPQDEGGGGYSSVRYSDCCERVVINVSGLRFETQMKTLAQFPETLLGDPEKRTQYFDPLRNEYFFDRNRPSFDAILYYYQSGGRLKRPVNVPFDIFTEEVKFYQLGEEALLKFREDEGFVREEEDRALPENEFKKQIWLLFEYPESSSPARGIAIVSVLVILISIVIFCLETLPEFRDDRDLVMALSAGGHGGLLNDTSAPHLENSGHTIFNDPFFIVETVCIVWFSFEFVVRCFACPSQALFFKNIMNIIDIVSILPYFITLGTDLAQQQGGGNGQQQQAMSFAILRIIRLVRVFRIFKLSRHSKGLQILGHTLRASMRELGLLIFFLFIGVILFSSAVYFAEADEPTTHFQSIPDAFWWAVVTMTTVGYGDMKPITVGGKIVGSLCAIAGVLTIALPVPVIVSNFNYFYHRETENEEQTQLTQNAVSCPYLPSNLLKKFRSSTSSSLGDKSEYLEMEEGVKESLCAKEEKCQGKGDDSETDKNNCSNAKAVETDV
# BK, sequence (Q12791 whole entry): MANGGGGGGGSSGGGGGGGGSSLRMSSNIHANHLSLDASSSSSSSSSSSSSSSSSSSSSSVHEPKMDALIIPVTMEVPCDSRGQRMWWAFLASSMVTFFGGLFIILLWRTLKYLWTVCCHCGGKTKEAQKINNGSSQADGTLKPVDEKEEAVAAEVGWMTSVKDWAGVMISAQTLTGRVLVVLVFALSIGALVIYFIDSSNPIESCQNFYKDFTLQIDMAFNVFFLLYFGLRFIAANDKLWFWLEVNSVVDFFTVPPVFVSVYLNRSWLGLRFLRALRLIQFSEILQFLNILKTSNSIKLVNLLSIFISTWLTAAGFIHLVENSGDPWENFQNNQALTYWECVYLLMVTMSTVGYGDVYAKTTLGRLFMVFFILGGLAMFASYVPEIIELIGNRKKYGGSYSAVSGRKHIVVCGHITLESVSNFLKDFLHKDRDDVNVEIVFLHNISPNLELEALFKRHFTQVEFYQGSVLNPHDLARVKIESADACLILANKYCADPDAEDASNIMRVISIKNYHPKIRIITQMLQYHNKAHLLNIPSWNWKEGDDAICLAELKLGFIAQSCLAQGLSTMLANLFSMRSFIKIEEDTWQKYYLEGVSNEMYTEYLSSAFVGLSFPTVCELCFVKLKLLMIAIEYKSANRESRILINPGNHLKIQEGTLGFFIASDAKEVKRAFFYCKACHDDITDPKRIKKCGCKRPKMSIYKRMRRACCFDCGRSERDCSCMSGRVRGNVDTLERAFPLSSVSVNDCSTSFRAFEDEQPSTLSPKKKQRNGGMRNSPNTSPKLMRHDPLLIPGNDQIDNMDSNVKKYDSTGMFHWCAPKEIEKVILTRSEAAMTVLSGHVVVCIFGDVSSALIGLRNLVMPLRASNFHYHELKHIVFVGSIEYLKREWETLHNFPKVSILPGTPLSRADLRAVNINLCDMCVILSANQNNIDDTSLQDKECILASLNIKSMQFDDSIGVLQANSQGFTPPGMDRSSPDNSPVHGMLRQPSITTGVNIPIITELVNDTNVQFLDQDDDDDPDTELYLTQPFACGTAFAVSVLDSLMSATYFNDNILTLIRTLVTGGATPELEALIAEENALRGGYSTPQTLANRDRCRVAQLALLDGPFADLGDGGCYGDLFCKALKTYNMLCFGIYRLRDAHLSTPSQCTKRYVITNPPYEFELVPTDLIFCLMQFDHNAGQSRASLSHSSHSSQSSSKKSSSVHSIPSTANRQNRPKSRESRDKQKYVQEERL
Molecule,nH (Kv1.3) [1],EC50 [2] [µM],other results
O=c1ccc2c(OCCCCCOc3ccccc3)c3ccoc3cc2o1,2.1,,
N#CCCCOc1c2ccoc2cc2oc(=O)ccc12,,,EC50 ([2]; cells printed in μM): 12 µM
"COc1ccc(OCCCCOc2c3ccoc3cc3oc(=O)ccc23)cc1 [AS67, 4-(4-[4-Methoxyphenoxy]butoxy)-7H-furo[3,2-g][1]benzopyran-7-on]",2.1,0.01 ± 0.001,
O=c1ccc2c(OCCCCc3ccccc3)c3ccoc3cc2o1 [Psora-4],,,inhibition of proliferation [3]: potently inhibited
O=c1ccc2c(OCCCCNc3ccncc3)c3ccoc3cc2o1,,,EC50 ([2]; cells printed in μM): 5 µM
O=c1ccc2c(OCCCCSc3ncccn3)c3ccoc3cc2o1,,0.159 ± 0.007,
"O=c1ccc2c(OCCCOc3ccccc3)c3ccoc3cc2o1 [PAP 3, 4-(3-Phenoxypropoxy)-7H-furo[3,2-g][1]benzopyran-7-on]",,0.1 ± 0.008,EC50 [4]: ~500 nM; EC50 [5]: 80 ± 10 nM
"O=c1ccc2c(OCCCCOc3ccc(Cl)cc3)c3ccoc3cc2o1 [AS84, 4-(4-[4-Chlorphenoxy]butoxy)-7H-furo[3,2-g][1]benzopyran-7-on]",2.0,0.01,
O=c1ccc2c(OCCCCOc3ccc(F)cc3)c3ccoc3cc2o1,2.3,0.012 ± 0.001,
"4-[3-(4-Ethylphenoxy)propoxy]-7H-furo[3,2-g][1]benzopyran-7-on [AS123]",1.7,,nH (Kv1.5) [2]: 2.0; EC50 ([2]; cells unit inferred): 0.068 ± 0.003 µM; EC50 [1]: 30 ± 2 nM
Cc1nnc(SCCCCOc2c3ccoc3cc3oc(=O)ccc23)s1,,,EC50 ([2]; cells printed in μM): 1 µM
C=C1C[C@@]2(O)[C@@H]3CC[C@@]4(C)[C@@H]5C=CC(=O)OC[C@]5(C(C)OC(C)=O)[C@@H](OC(C)=O)[C@@H](OC(C)=O)[C@@H]4[C@@]3(C)[C@H](OC(C)=O)[C@H](OC(C)=O)[C@@]2(C)C2(C(=O)OC)O[C@H]12 (some centres unmarked) [correolide],,,suppression of the primary DTH response [6]: effectively suppress; suppression of the secondary DTH response [6]: much less effective
N#CCCCOc1c2occc2cc2ccc(=O)oc12,,,EC50 ([2]; cells printed in μM): 10 µM
O=c1ccc2c(OCCCCOCc3ccccc3)c3ccoc3cc2o1,,0.75 ± 0.04,
"4-[3-(4-Methylphenoxy)propoxy]-7H-furo[3,2-g][1]benzopyran-7-on [AS127]",1.9,,nH (Kv1.5) [2]: 1.8; EC50 ([2]; cells unit inferred): 0.25 ± 0.01 µM; EC50 [1]: 25 ± 2 nM
O=c1ccc2ccc(OCCCCOc3c4ccoc4cc4oc(=O)ccc34)cc2o1,,,EC50 ([2]; cells printed in μM): 5 µM
O=c1ccc2c(OCCCCOc3ccc4ccccc4c3)c3ccoc3cc2o1 [AS118],2.1,0.08 ± 0.01,nH (Kv1.5) [2]: 2.0
Cc1ccc(OCCCCOc2c3ccoc3cc3oc(=O)ccc23)c([N+](=O)[O-])c1,,0.248 ± 0.02,
"COc1cccc(OCCCCOc2c3ccoc3cc3oc(=O)ccc23)c1 [AS68, 4-(4-[3-Methoxyphenoxy]butoxy)-7H-furo[3,2-g][1]benzopyran-7-on]",,0.045 ± 0.005,
"COc1cc(OC)cc(OCCCOc2c3ccoc3cc3oc(=O)ccc23)c1 [AS104, 4-[3-(3,5-Dimethoxyphenoxy)propoxy]-7H-furo[3,2-g][1]benzopyran-7-on]",2.2,,

Molecule,nH (Kv1.3) [1],EC50 [2] [µM],other results
O=c1ccc2c(OCCCCOc3cccc4ccccc34)c3ccoc3cc2o1 [AS111],2.0,0.05 ± 0.005,nH (Kv1.5) [2]: 2.0
O=c1ccc2c(OCCCCOc3cccc(C(F)(F)F)c3)c3ccoc3cc2o1,2.0,0.25,
COc1ccc2sc(SCCCCOc3c4ccoc4cc4oc(=O)ccc34)nc2c1,,0.1,
"Cc1ccc(OCCCCOc2c3ccoc3cc3oc(=O)ccc23)cc1 [AS96, 4-(4-[4-Methylphenoxy]butoxy)-7H-furo[3,2-g][1]benzopyran-7-on]",2.1,0.02,
"MgTX: Kv1.3 blocker MgTX (TIINVKCTSPKQCLPPCKAQFGQSAGAKCMNGKCKCYPH; ends and bridges not checked; cysteine pairing not given here; UniProt P40755 1-39, looked up)",,,suppression of the primary DTH response [6]: effectively suppress; suppression of the secondary DTH response [6]: much less effective
CCc1ccc(OCCCCCOc2c3ccoc3cc3oc(=O)ccc23)cc1,2.1,,
N#CCCCCOc1c2ccoc2cc2oc(=O)ccc12,,,EC50 ([2]; cells printed in μM): 5 µM
O=c1ccc2c(OCCCOCc3ccccc3)c3ccoc3cc2o1,,0.17 ± 0.02,
"O=c1ccc2c(OCCCOc3ccc(Cl)cc3)c3ccoc3cc2o1 [AS132, 4-[3-(4-Chlorphenoxy)propoxy]-7H-furo[3,2-g][1]benzopyran-7-on]",,,nH (Kv1.5) [2]: 2.0; EC50 ([2]; cells unit inferred): 0.025 ± 0.002 µM; nH (Kv1.3) ([1]; listed as drawing 81): 2.0
O=c1ccc2c(OCCOCc3ccccc3)c3ccoc3cc2o1,,0.11 ± 0.02,EC50 [5]: 175 ± 20 nM
N#CCCCCOc1c2occc2cc2ccc(=O)oc12,,,EC50 ([2]; cells printed in μM): 10 µM
"O=c1ccc2c(OCCCCOc3ccccc3)c3ccoc3cc2o1 [PAP 1, 4-(4-Phenoxybutoxy)-7H-furo[3,2-g][1]benzopyran-7-on]",1.8,0.045 ± 0.003,EC50 [7]: 1500 ± 700 nM; EC50 [4]: 75 ± 5 nM; nH (Kv1.5) [2]: 2.3; EC50 [8]: 10000 ± 1000 nM; EC50 [9]: 98 ± 5 nM; EC50 [5]: 65 ± 8 nM
"COc1cc(OC)cc(OCCCCOc2c3ccoc3cc3oc(=O)ccc23)c1 [AS69, 4-(4-[3,5-Dimethoxyphenoxy]butoxy)-7H-furo[3,2-g][1]benzopyran-7-on]",,0.15 ± 0.02,
"O=c1ccc2c(OCCCCOc3ccc(Oc4ccccc4)cc3)c3ccoc3cc2o1 [AS85, 4-(4-[4-Phenoxyphenoxy]butoxy)-7H-furo[3,2-g][1]benzopyran-7-on]",,0.75,selectivity for Kv1.3 channels over Kv1.5 channels [1]: selective for Kv1.3 channels over Kv1.5 channels
"O=c1ccc2c(OCCCCOc3ccc([N+](=O)[O-])cc3)c3ccoc3cc2o1 [AS78, 4-(4-[4-Nitrophenoxy]butoxy)-7H-furo[3,2-g][1]benzopyran-7-on]",1.9,0.105 ± 0.008,selectivity for Kv1.3 channels over Kv1.5 channels [1]: selective for Kv1.3 channels over Kv1.5 channels
"4-[3-(1-Naphthyloxy)propoxy]-7H-furo[3,2-g][1]benzopyran-7-on [AS135]",2.1,,EC50 [1]: 18 ± 1 nM
O=c1ccc2c(OCCCCn3cccn3)c3ccoc3cc2o1,,,EC50 ([2]; cells printed in μM): 5 µM
COc1cc([N+](=O)[O-])ccc1OCCCCOc1c2ccoc2cc2oc(=O)ccc12,,0.476 ± 0.02,
O=c1ccc2c(OCCCCOCc3ccc(F)cc3)c3ccoc3cc2o1,2,,
"4-[3-(3-Methoxyphenoxy)propoxy]-7H-furo[3,2-g][1]benzopyran-7-on [AS64]",2.05,,EC50 [1]: 42 ± 3 nM
